Reference: US8722582B2, “Thermodynamically stable crystal modification of 2-({2-chloro-4-(methylsulfonyl)-3-[(2,2,2-trifluoroethoxy)methyl]phenyl} carbonyl)cyclohexane-1,3-dione” (Bayer Cropscience AG, priority 2007, dated 2014)

Assays:
[1] = Tests in practice of suspension formulations; assay type: physicochemical; details: tembotrione finely ground in solid form, spontaneously or over a relatively long period of time
Text: Tembotrione, which is known, for example, from WO 00/21924 (example No. 3 in table 1), has herbicidal properties and is suitable for preparing crop protection compositions used for weed control. […] User-friendly presentation forms are, for example, suspension formulations in which tembotrione is present finely ground in solid form. […] The crystal growth may occur spontaneously or over a relatively long period of time and is unpredictable.

[2] = Stability test: storage of an oil dispersion; assay type: physicochemical; details: oil dispersion of tembotrione; after several weeks of storage; compared to oil dispersion of crystal modification II, III or a mixture thereof

Structure (SMILES)	crystal growth, agglomeration and precipitation in suspension formulation [1]	signs of agglomeration and precipitation on storage [2]
CS(=O)(=O)c1ccc(C(=O)C2C(=O)CCCC2=O)c(Cl)c1COCC(F)(F)F [tembotrione, 2-({2-chloro-4-(methylsulfonyl)-3-[(2,2,2-trifluoroethoxy)methyl]phenyl}carbonyl)cyclohexan-1,3-dione]	leads to crystal growth and, as a consequence thereof, to agglomeration and precipitation	
CS(=O)(=O)c1ccc(C(=O)C2C(=O)CCCC2=O)c(Cl)c1COCC(F)(F)F [crystal modification I, 2-({2-chloro-4-(methylsulfonyl)-3-[(2,2,2-trifluoroethoxy)methyl]phenyl}carbonyl)cyclohexan-1,3-dione]		no signs of agglomeration and precipitation
